The subject of data set [1] is SK-MEL-2 cells. Briefly: Growth inhibition assay (cell counts over 72 h). The data set is classed as cell-based, human. The following applies: for inhibition at 0.05 µM / inhibition at 0.1 µM / inhibition at 0.2 µM / inhibition at 0.5 µM / inhibition at 1 µM: Homo sapiens; for inhibition at 0.05 µM: 50 nM; for inhibition at 0.1 µM: 100 nM; for inhibition at 0.2 µM: 200 nM; for inhibition at 0.5 µM: 500 nM. Here is the method:
For the growth inhibition assays, the PCS-200-013 cells or SK-MEL-2 cells were seeded at 40,000 cells/well into 6-well-plates and treated with the respective inhibitor. Cells in each well were counted after 24 h from the time of treating with the inhibitor at the desired concentration. Each inhibitor had triplicate plates which were counted at 24th, 48th and 72nd hours after initiating the inhibitor treatment. Inhibitors were added after 24 h of seeding point. The inhibitor concentrations were none (control), 50 nM, 100 nM, 200 nM, 500 nM and 1 μM. The cells were counted using a hemocytometer. The same procedure was followed for inhibitors ICA-1, ACPD, 3,4-diamino-2,7-naphthalenedisulfonic acid DNDA and 8-hydroxy-1, 3,6-naphthalenetrisulfonic acid (ζ-Stat).
Cell growth of malignant melanoma cells was reduced by applying PKC-ι and PKC-ζ inhibitors (FIGS. 3A-3D and 4A-4B). Both PKC-ι, and PKC-ζ heavily contributed to the migration of metastasized melanoma cells and migration can be suppressed using ICA-1 and ACPD. For example, Tables 1-2 provide a summary of the percentage inhibition of growth of SK-MEL-2 cells (Table 1 for ICA-1 and Table 2 for ACPD) as a function of time over 72 h period. Both ACPD and ICA-1 have 40% effectiveness on cell proliferation inhibition at the highest concentration used. Inhibition is increased upon increasing the concentration.

For the next data set, the system named is PCS-200-013 normal cells. Briefly: WST-1 assay for cell viability and cytotoxicity. The data set is classed as cell-based, human. The following applies: treated at IC50, 3 days. As to the method:
(§1) Approximately 4×10^3 cells (PCS-200-013, SK-MEL-2 and MeWo) were cultured in a 96 well plate. […] This IC50 was obtained based on the cell viability counts in the previous experiments. Additional doses of sterile water or inhibitor were supplied every 24 h during 3 day incubation period. At the end of 3 day treatment, media were removed and fresh media (100 μL) were added with 4-[3-(4-iodophenyl)-2-(4-nitropheny))-2H-5-tetrazolio]-1,3-benzene disulfonate (WST-1) reagent (10 μL) to each well. The absorbance was measured at 450 nm for every 0.5 hour up to 3 hours using the Synergy HT microplate reader from Biotek (Winooski, Vt.).
(§2) WST-1 assay was performed to determine the in-vitro cytotoxicity of ACPD and DNDA on normal and malignant cell lines. Measured absorbance at 450 nm is directly proportional to the number of cells present. Cells produce a water soluble formazan with WST-1 as a result of their mitochondrial dehydrogenase activity. WST-1 assay is preferred over 3-(4,S-Dimethyl-2-thiazolyl)-2, 5-diphenyl-2Htetrazolium bromide (MTT) test since MTT needs to add acidic isopropanol to dissolve formazan which gives an additional toxicity to cells.

Data set [2] deals with SK-MEL-2 cells. In words: WST-1 assay for cell viability and cytotoxicity. Type of data set: cell-based, human. Particulars: treated at IC50, 3 days. As to the method: as §1, §2
A further data set has as its target T1, PKC-ζ (Homo sapiens, UniProt Q05513).
T1 sequence (Q05513 1-592): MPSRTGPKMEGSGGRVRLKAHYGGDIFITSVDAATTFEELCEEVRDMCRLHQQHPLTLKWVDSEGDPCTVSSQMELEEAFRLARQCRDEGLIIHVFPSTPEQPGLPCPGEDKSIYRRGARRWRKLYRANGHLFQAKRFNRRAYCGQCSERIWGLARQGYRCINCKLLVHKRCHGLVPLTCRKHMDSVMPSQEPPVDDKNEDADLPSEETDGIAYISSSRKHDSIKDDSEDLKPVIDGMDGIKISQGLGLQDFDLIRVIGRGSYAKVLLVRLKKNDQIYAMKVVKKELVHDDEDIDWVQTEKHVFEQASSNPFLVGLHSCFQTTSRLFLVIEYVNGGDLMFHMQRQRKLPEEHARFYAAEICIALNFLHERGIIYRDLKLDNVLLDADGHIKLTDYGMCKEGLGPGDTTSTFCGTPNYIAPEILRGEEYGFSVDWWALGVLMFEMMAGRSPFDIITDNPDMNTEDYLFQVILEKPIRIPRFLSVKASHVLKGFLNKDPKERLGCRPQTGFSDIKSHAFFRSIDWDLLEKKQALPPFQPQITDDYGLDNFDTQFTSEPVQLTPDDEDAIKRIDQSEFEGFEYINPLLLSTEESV
Particulars: at 10 μM; cited from earlier work.

The test system of a further data set is other PKC isoforms. Particulars: cited from earlier work.
Data set [3] relates to MAPK, Akt2, FGFR 1/2/3/4, mTOR, GSK3B, IRAK1/4, JAK 1/2, MEK1, ERK1/2, JNK 1/2, PKA, Src, ROCK2 and PI3K. The following applies: cited from earlier work.
Data set [4] deals with malignant melanoma cell lines (SK-MEL-2 and MeWo). In words: Western blot of ζ-Stat treated samples. Type of data set: cell-based, human. Here is the method: The change of levels of phosphorylated PKC-ι, total PKC-ι (FIG. 18A) and change of levels of phosphorylated PKC-ζ, total PKC-ζ (FIG. 18B) are shown for the ζ-Stat treated (2.5 μM) samples of malignant melanoma cell lines (SK-MEL-2 and MeWo) after the end of 3rd day of treatments. β-actin was used as the internal loading control in each Western blot. Whole cell lysate of 40 μg was separated on 7.5% SDS-PAGE and the Western blots of above proteins were obtained. N=3 experiments were performed in each case.

On to `CC(=O)C1=C(O)CCC1=O` [ACPD, 2-acetyl-1,3-cyclopentanedione], for which, in the data set on SK-MEL-2 cells [1] (SK-MEL-2, 24 h, Day 1), the inhibition at 0.05 µM worked out at 1%, the inhibition at 0.1 µM turned out to be 11%, testing at 0.2 µM gave an inhibition of 19% and the inhibition at 0.5 µM came out at 26%. Further, the inhibition at 1 µM in the data set with SK-MEL-2 cells [1] (SK-MEL-2, 24 h, Day 1) worked out at 36%. Further, in the data set with SK-MEL-2 cells [1] (SK-MEL-2, 48 h, Day 2), the inhibition at 0.05 µM is 4%, at 0.1 µM the inhibition was 10%, 0.2 µM produced 23% inhibition and the inhibition at 0.5 µM came out at 30%. In addition, the inhibition at 1 µM in the data set on SK-MEL-2 cells [1] (SK-MEL-2, 48 h, Day 2) came to 35%. Moreover, in the data set on SK-MEL-2 cells [1] (SK-MEL-2, 72 h, Day 3), testing at 0.05 µM gave an inhibition of 5%, the inhibition at 0.1 µM was 9%, testing at 0.2 µM gave an inhibition of 20% and the inhibition at 0.5 µM came to 26%. Also, at 1 µM the inhibition in the data set with SK-MEL-2 cells [1] (SK-MEL-2, 72 h, Day 3) was 37%. In addition, the “effectiveness on cell proliferation inhibition” value in the data set on SK-MEL-2 cells [1] (at the highest concentration used) turned out to be 40%. Also, the “WST-1 absorbance at 450 nm, effect on normal cells” value with PCS-200-013 normal cells is “did not show a significant effect”. Besides, the “WST-1 absorbance at 450 nm, effect” value in the data set with SK-MEL-2 cells [2] is recorded as “did not show a significant effect”. Moreover, on PKC-ζ, the “inhibition of PKC-ζ” value is given as “about 60%”. The “effect on other PKC isoforms” value in the data set with other PKC isoforms is given as “without affecting”. Besides, in data set [3], the “inhibition of other kinases” value is “does not inhibit”.

For `Nc1c(S(=O)(=O)O)cc2cc(S(=O)(=O)O)ccc2c1N` [DNDA, 3,4-diamino-2,7-naphthalenedisulfonic acid], in the data set with PCS-200-013 normal cells, the “WST-1 absorbance at 450 nm, effect on normal cells” value is “did not show a significant effect”. For the same compound, in the data set on SK-MEL-2 cells [2], the “WST-1 absorbance at 450 nm, effect” value is “significant decrease in absorption”.

For `O=S(=O)(O)c1cc(O)c2c(S(=O)(=O)O)cc(S(=O)(=O)O)cc2c1` [ζ-Stat, 8-hydroxy-1,3,6-naphthalenetrisulfonic acid], in data set [4], the “apoptosis of malignant melanoma cells” value is “induces the apoptosis”. In data set [4] (2.5 μM, end of 3rd day), the “phosphorylated PKC-ι level” value is “did not change significantly”, the “reduction of pPKC-ζ level” value was found to be 37%, the “reduction of total PKC-ζ level” value came to 42% and the “total PKC-ι protein level” value was “did not change significantly”.

The record behind these values is patent US11065266B2, “Method of treating melanoma using an inhibitor of an atypical protein kinase C” (UNIVERSITY OF SOUTH FLORIDA, priority 2016, dated 2021).
